The values below come from patent US20240425508A1, “COMPOUNDS USEFUL IN PREVENTION AND/OR TREATMENT OF SENESCENT CELL-RELATED PATHOLOGIES AND DISEASES” (ISTITUTI CLINICI SCIENTIFICI MAUGERI SPA SB, priority 2022, published 2024).

Molecules are shown by their SMILES. Like-named read-outs stand apart in the source and are kept apart here.

One series has as its system IMR90 cells. In words: DAPI staining assay of surviving cells in replicative senescence model. The note with it: DAPI signal, 0.5 μM, 48 h, FIG. 2B. The protocol: Following treatment, the cells were seeded in 96mw. The adherent cells were then fixed with 70% ethanol, incubated for 30 min with a 3 μM DAPI solution; the fluorimetric signal was measured using a multiplate reader (Victor Nivo-Perkin Elmer) set to 350/460 nm (Ligasová A, Koberna K. Quantification of fixed adherent cells using a strong enhancer of the fluorescence of DNA dyes. Sci Rep. 2019 Jun. 18; 9(1):8701. doi: 10.1038/s41598-019-45217-9. PMID: 31213648; PMCID: PMC6581942.).
To confirm data obtained by traditional cell counting by a single operator, a quantification method based on […] was also implemented, exploiting the ability of the DAPI to mark cell nuclei. The cells that survived the action of senolytics were fixed and incubated with the fluorescent indicator. The specific signal was measured using the microplate multimode reader, Victor NIVO (PerkinElmer Tech. GmbH, Germany).

For series [1] the following is noted: dogs; cited from earlier work.
For series [2] the following is noted: rats; cited from earlier work.
A short description of series [3]: Crossing of the blood-brain barrier after administration. The note with it: in vivo.
For series [4], the system named is primary human fetal lung cells IMR90. Format: cell-based. The text has this:
Cell culture and replicative senescence. Fetal pulmonary fibroblasts, IMR90, were provided by the European Collection of Authenticated Cell Culture (ECACC) and grown in a complete medium consisting of Minimum Essential Medium (MEM), 10% Fetal Bovine Serum (FBS), 1% penicillin-streptomycin (antibiotic), 1% L-glutamine. Cells with passages from P15 to P21 were used; cells were considered incrementally senescent from passage P19 to passage P21. […] The cells were fixed in paraformaldehyde 2% and incubated with the substrate, X-gal, in a solution at pH 6, at 37° C., overnight (16 h).
The images were acquired using an optical microscope (Leica) with 5× magnification. The images were analyzed using the ImageJ software, quantifying the colorimetric signal emitted by each cell. The mean signal intensity was then normalized for the total number of cells. Survival curves of the compounds. […] The cells were then counted manually, in triplicate, using disposable burker chambers.
13 compounds including K5, with different structures, were assayed using an in vitro senescence model, that was developed utilizing serial passages of primary human fetal lung cells IMR90. […] Senescence was detected using the “Senescence β-Galactosidase Staining Kit” (#9860S, Cell Signaling Technology, Inc., MA, USA). […]

In a further series the target is T1, recombinant HSP90α (Homo sapiens, UniProt P07900).
T1 construct: purchased BPS Bioscience 50293
In words: HSP90 inhibition activity assay, FITC-geldanamycin competitive binding fluorescence polarization. The note with it: 1 pM-10 μM, 2 h, FITC-labeled geldanamycin. As to the method:
HSP90 inhibition activity assay. […] Briefly, the compounds were diluted at different concentrations between 1 pM to 10 μM and incubated for 2 h with the enzyme and substrate at RT while stirring.

On to `CO[C@H]1/C=C\C=C(/C)C(=O)NC2=CC(=O)C(NCCN(C)C)=C(C[C@@H](C)C[C@H](OC)[C@H](O)[C@@H](C)/C=C(\C)[C@@H]1OC(N)=O)C2=O` [Compound 17-DMAG, 17-dimethylaminoethylamino-17-demethoxygeldanamycin], for which the “cytotoxic effects in the cellular model IMR90” value in the series with IMR90 cells is “cytotoxic effects already at low concentrations and also in early passages”. Besides, the “maximum tolerated dose (MTD)” value is 8 mg/m^2 in series [1] and 12 mg/m^2 in series [2].
In the case of `Cc1ccccc1-n1c(=O)n(Cc2ccccc2)c(=O)c2[nH]cnc21` [Compound Ia, 1-benzyl-3-(2-methylphenyl)-2,3,6,7-tetrahydro-1H-purine-2,6-dione], the “crossing of the blood-brain barrier (BBB)” value in series [3] is given as “enables the crossing of the blood-brain barrier”. Further, in series [4] (IMR90 P19-P21, first 48 hours of exposure, FIG. 2A (1 μM)), the “reduction of the senescent population” value is recorded as “about 50%”. The “senolytic action on cells at passages between P19 and P21” value in series [4] (IMR90 P19-P21 vs P15-P17, 1 μM, 48 h) is “act selectively and significantly”. The IC50 on recombinant HSP90α worked out at 731 nM.
Regarding `CC(C)c1cc(-c2n[nH]c(=O)n2-c2ccc3c(ccn3C)c2)c(O)cc1O` [Ganetespib], in the series on IMR90 cells, the “cytotoxic effects in the cellular model IMR90” value is “cytotoxic effects already at low concentrations and also in early passages”.
